Tests used:
TGase 2 [1] = assay: Immunohistochemical staining of TGase 2 in rat brain after LPS injection; assay type: in vivo; conditions: rats killed 1 hour after peritoneal injection of 2.5 mg/kg LPS, compared with saline alone
Experimental: Male Sprague-Dawley rats (Samtako, Osan, Korea) weighing 190-220 g were used as experimental models for intraperitoneal LPS injection as described previously. All experimental procedures were approved by the Seoul National University Care of Experimental Animals Committee. A solution of LPS (2.5 mg/kg) in 0.9% saline or 0.9% sterile saline was intraperitoneally injected into rats. To determine the effect of TGase inhibitors, rats were intraperitoneally injected with an R2 peptide (25 μM), an E2 peptide (25 μM, and dexamethasome (1 mg/kg) at 30 min before and at the time of LPS injection. Dexamethasome injection was used as a positive control.
After 1 hour of intraperitoneal injection with LPS or saline, rats were anesthetized with 1% ketamine (30 mg/kg) and xylazine hydrochloride (4 mg/kg). Brains were perfused through the heart with saline containing 0.5% sodium nitrite and 10 units/ml heparin, followed by perfusion with 4% paraformaldehyde in PBS (0.1 M, pH 7.2). Brains were removed, rinsed with PBS, and cryoprotected in sucrose. Sections were prepared on a sliding microtome (40 μm) at the level of the subfornical organ. A monoclonal antibody (TG-100; NeoMarkers) to TGase 2 was used to subject TGase 2 to immunohistochemical staining. Brain sections were blocked with 1% BSA in PBS and incubated overnight with a primary antibody solution (1:200 dilution). […]

TGase 2 [2] = assay: TGase activity assay in LPS-activated BV-2 microglia; assay type: cell-based, murine; conditions: BV-2 microglia, after 24 hours of LPS treatment (100 μg/ml)
Experimental: (§1) The BV-2 cells were grown and maintained in DMEM (Dulvecco's modified Eagle's medium) (Invitrogen) supplemented with 10% FCS (fetal calf serum) and penicillin/streptomycin at 37° C. in a humidified incubator under 5% CO2. To activate BV-2, the cells were treated with LPS (100 μg/ml; Sigma) for 24 hours. After LPS treatment for 24 hours with or without inducible nitric-oxide synthase(iNOS) inhibitor, 0, 50, and 100 μM N^G-monomethyl-L-arginine(L-NMMA) (Sigma), proteins were extracted with radioimmunoprecipitation assay buffer (1× phosphate-buffered saline (PBS), 1% Nonidet P-40, 0.5% sodium deoxycholate and 0.1% SDS) containing protease inhibitors from BV-2 harvest, followed by analysis for TGase 2 activity.
Enzymatic activity was determined using a modified TGase assay method for measuring the incorporation of [1,4-^14C] putrescine into succinylated casein.

TGase 2 [3] = conditions: microglia after 24 hours of exposure to LPS; previous study (Park et al. 2004); cited from earlier work
BV-2 microglia = assay: Nitric oxide measurement (Griess reaction) in LPS-activated BV-2 microglia; assay type: cell-based, murine; conditions: BV-2 microglia, after 24 hours of LPS treatment (100 μg/ml)
Experimental: as §1
Accumulated nitric oxide was measured in the cell supernatant after LPS treatment for 24 hours by Griess reaction. A 200 μl aliquot of the cell supernatant in each well of a 96-well microtiter plate was mixed with 100 μl of the Griess reagent [1% sulfanilamide (Fluka), 0.1% naphthylethylenediamine dihydrochloride (Fluka), 2.5% H3PO4], and the absorbance was read at 540 nm using a plate reader.

iNOS = assay: Semi-quantitative RT-PCR of mouse iNOS in BV-2 cells; assay type: cell-based; conditions: BV-2 cells treated with LPS
Experimental: (§2) Semi-quantitative RT-PCR was performed using competitive mimic templates as internal controls. To prepare total RNA for RT-PCR, the cells were lysed with a TRIzol reagent. Samples of the total RNA were reverse-transcribed at 42° C. using the first strand synthesis kit (Promega) with avian myeloblastosis virus reverse transcriptase, and PCR was performed for the transcripts of iNOS and TGase 2 using corresponding specific primer sets. For each PCR, 1.5 mM MgCl2, 200 μM dNTP, 0.2 μM of each primer, 0.5 unit Taq polymerase, and a predetermined amount of a template were contained in a volume of 20 μl. The mimic templates of TGase 2 and iNOS were constructed by PCR. The mimics of mouse TGase 2 and mouse iNOS were prepared from 2014-2338 bp and 1451-2043 bp, respectively. RT-PCR products thus obtained were 526 bp for target TGase 2, 345 bp for mimic TGase 2, 593 bp for target iNOS, and 345 bp for mimic iNOS. For the RT-PCR, a primer set of SEQ. ID. NOS. 1 and 2, and a primer set of SEQ. ID. NOS.

TGase 2 [4] = assay: Semi-quantitative RT-PCR of mouse TGase 2 in BV-2 cells; assay type: cell-based; conditions: BV-2 cells treated with LPS
Experimental: as §2

**Q.** Which results are given for lipopolysaccharide [LPS]?
**A.** TGase 2 expression in brains (TGase 2 [1]): increased; TGase 2 activity, increase (TGase 2 [2]): 5 fold; TGase activity, increase (TGase 2 [3]): about 5 fold; release of NO, increase (BV-2 microglia): 10 fold; iNOS by RT-PCR, increase (iNOS): 10 fold; TGase 2 by RT-PCR, increase (TGase 2 [4]): 3 fold
